Test results: US20080153794A1, “Medicaments and methods for wound healing” (RENOVO LIMITED, priority 2006, published 2008)

Columns and labels:
partial thickness wounds = test: Pig partial thickness wound healing model (model of split thickness skin graft donor sites); format: in vivo, male Large White pigs; details: 100 μl per cm^2 intradermal, five days after wounding, four pigs
Experimental: Test medicaments were administered by intradermal injection to provide 100 μl of medicament per cm^2 to sites on experimental pigs where wounds were to be formed. Thus a total volume of 625 μl of the test medicament was administered per wound site. After administration of the medicaments 2.5 cm by 2.5 cm (6.25 cm^2) partial thickness wounds were made using a 25 mm dermatome (Nouvag) at a depth setting of 0.55 mm. A single wound was treated per animal, and each treatment group comprised four male Large White pigs. Animals were killed, and their wounds harvested, five days after wounding. The wounds were excised and treated for histology. […] After being allowed fixed for 48 hours wounded tissue was bisected into four even sections. All bisected sections were processed to wax and embedded into individual wax blocks. Tissue was sectioned through to the end of the block where at every 250 μm, a single slide containing a 5 μm thick section was prepared. […] For each section, the freehand epithelialised and freehand non-epithelialised distances were measured using image analysis; freehand epithelialised distance as a proportion of the sum of the epithelialised and non-epithelialised distances was calculated to produce a percentage re-epithelialisation value. Average percentage re-epithelialisation values were calculated per wound and per treatment group.

[1] = tested on: full thickness cutaneous excisional wounds (punch biopsies); test: Human 3 mm punch biopsy wounds: re-epithelialisation; format: in vivo, humans; details: single 100 μl intradermal dose 10-30 minutes before wounding, day 3, 44 wounds
Experimental: Medicaments of the invention were prepared using the constituents described above. […] 44 healthy subjects were recruited to the study, of whom, 40 were healthy males (aged 18-75 years) and 4 were post-menopausal females (aged 53-69 years). The average age of subjects recruited to this study was 42 years. The post-menopausal status of female subjects was confirmed by quantification of serum levels of oestradiol and follicle stimulating hormone (FSH). Serum levels of oestradiol were required to be […], and follicle stimulating hormone levels >31 IU/L. Each subject had four wounds treated with active drug, one corresponding to each of four concentrations of the medicaments produced. The test medicaments were each administered intradermally as a single dose at a volume of 100 μl (sufficient to treat 1 cm^2 of skin) per wound site (the upper, inner aspect of each arm), 10-30 minutes before wounding. Subjects received 3 mm punch biopsies at the sites where the medicaments had been administered. After wounding, all sites received moist wound healing dressings (Standard Care). Biopsy sites were excised, using a 5 mm punch biopsy, three days after wounding. […] Percentage re-epithelialisation for the new epithelium was calculated as a proportion of the total wound diameter. The average percentage re-epithelialisation value was calculated from the 44 wounds of each treatment group.

[2] = tested on: full thickness excisional wounds (punch biopsies); test: Rat full thickness excisional wound model (study 3): re-epithelialisation at test concentrations, injection 20 minutes before wounding; format: in vivo, adult male Sprague-Dawley rats; details: intradermal 20 minutes before wounding, day 3, five rats
Source text: Animals were killed, and their wounds harvested, three days after wounding. The wounds were excised and treated for histology. […] All histological assessments of early wound healing events were made using preserved 5 micron-thickness wound sections taken from the widest part of each excised biopsy site. Sections were stained with Haematoxylin and Eosin to aid visualisation of structural features, and measurements made using image analysis software. The distance traveled by the epithelium is derived from two histological measurements: the freehand total wound diameter and the freehand non-epithelialised wound diameter. The non-epithelialised diameter is subtracted from the total wound diameter, to determine the distance which the new epithelium has covered since the time of wounding. Percentage re-epithelialisation for the new epithelium was calculated as a proportion of the total wound diameter. The average percentage re-epithelialisation value was calculated from the wounds of the […] within each treatment group. […] 100 μl of the medicament to be tested was administered by intradermal injection at sites on the dorsal surface of experimental rats, 20 minutes prior to formation of a full thickness punch biopsy at the injected site. One injection and excisional wound was made per animal, and five adult male Sprague-Dawley rats used per treatment group. Acceleration of wound healing achieved using the test concentrations of the medicaments of the invention was investigated using the protocols set out under 1.1.4 above.

[3] = 0.1 μg 17β-oestradiol/100 μl of medicament (0.0001% w/v)

## C[C@]12CC[C@@H]3c4ccc(O)cc4CC[C@H]3[C@@H]1CC[C@@H]2O [17β-oestradiol]
Partial thickness wounds; 0.1 μg 17β-oestradiol/100 μl of medicament
  re-epithelialisation: 98.15%
Partial thickness wounds; 0.2 μg 17β-oestradiol/100 μl of medicament
  re-epithelialisation: 98.56%
[1]; [3]
  acceleration of re-epithelialisation (in words): particularly preferable ability to induce acceleration of re-epithelialisation
[1]; 0.2 μg 17β-oestradiol/100 μl of medicament (0.0002% w/v)
  acceleration of re-epithelialisation (in words): particularly preferable ability to induce acceleration of re-epithelialisation
[2]; 0.001 μg 17β-oestradiol/100 μl of medicament (0.000001% w/v)
  re-epithelialisation: 23.02%
[2]; 0.01 μg 17β-oestradiol/100 μl of medicament (0.00001% w/v)
  re-epithelialisation: 29.03%
[2]; [3]
  re-epithelialisation: 29.95%
[2]; 1 μg 17β-oestradiol/100 μl of medicament (0.001% w/v)
  re-epithelialisation: 14.63%
[2]; 10 μg 17β-oestradiol/100 μl of medicament (0.01% w/v)
  re-epithelialisation: 10.30%
